Measured values: PMC5218480 (PLoS ONE, 2017)

Test system: MV-4-11 cells
Test: Gene expression microarray analysis (Affymetrix PrimeView) and GSEA
Type: cell-based, human
Design: RFU PODN (11730768_x_at) / Fold change /veh PODN (11730768_x_at) / RFU LINC00158 (11744669_a_at) / Fold change /veh LINC00158 (11744669_a_at) / RFU DUSP10 (11751237_a_at) / Fold change /veh DUSP10 (11751237_a_at) / RFU ID3 (11757404_x_at) / Fold change /veh ID3 (11757404_x_at) / RFU PLEKHG5 (11737974_s_at) / Fold change /veh PLEKHG5 (11737974_s_at) / RFU LRRC4B (11730491_at) / Fold change /veh LRRC4B (11730491_at) / RFU GIMAP4 (11747438_a_at) / Fold change /veh GIMAP4 (11747438_a_at) / RFU KRT8 (11758183_x_at) / Fold change /veh KRT8 (11758183_x_at) / RFU CNN1 (11734310_a_at) / Fold change /veh CNN1 (11734310_a_at) / RFU VPS37D (11726825_at) / Fold change /veh VPS37D (11726825_at) / RFU C10orf10 (11716522_x_at) / Fold change /veh C10orf10 (11716522_x_at) / RFU KIR2DL2 /// KIR2DL4 /// KIR2DL5A /// KIR2DL5B /// KIR2DS1 /// KIR2DS2 /// KIR2DS3 /// KIR2DS4 /// KIR3DL3 /// KIR3DL3 /// KIR3DS1 (11738374_at) / Fold change /veh KIR2DL2 /// KIR2DL4 /// KIR2DL5A /// KIR2DL5B /// KIR2DS1 /// KIR2DS2 /// KIR2DS3 /// KIR2DS4 /// KIR3DL3 /// KIR3DL3 /// KIR3DS1 (11738374_at) / RFU C1QL1 (11718748_at) / Fold change /veh C1QL1 (11718748_at) / RFU TMPRSS4 (11747572_a_at) / Fold change /veh TMPRSS4 (11747572_a_at) / RFU HAMP (11756126_x_at) / Fold change /veh HAMP (11756126_x_at) / RFU RNFT2 (11725882_a_at) / Fold change /veh RNFT2 (11725882_a_at) / RFU NR4A2 (11747474_a_at) / Fold change /veh NR4A2 (11747474_a_at) / RFU ABCC12 (11746883_a_at) / Fold change /veh ABCC12 (11746883_a_at) / RFU TMEM136 (11760407_x_at) / Fold change /veh TMEM136 (11760407_x_at) / RFU CLDN22 /// WWC2 (11732394_at) / Fold change /veh CLDN22 /// WWC2 (11732394_at) / RFU HLA-DPB1 (11760878_x_at) / Fold change /veh HLA-DPB1 (11760878_x_at) / RFU SPINT1 (11716480_a_at) / Fold change /veh SPINT1 (11716480_a_at) / RFU GAP43 (11754022_s_at) / Fold change /veh GAP43 (11754022_s_at) / RFU A4GNT (11735810_at) / Fold change /veh A4GNT (11735810_at) / RFU PRB3 (11715151_x_at) / Fold change /veh PRB3 (11715151_x_at) / RFU TUBB4B (11761932_at) / Fold change /veh TUBB4B (11761932_at) / RFU CAPN14 (11732068_a_at) / Fold change /veh CAPN14 (11732068_a_at) / RFU TMCC2 (11721928_a_at) / Fold change /veh TMCC2 (11721928_a_at) / RFU IRGQ (11745062_a_at) / Fold change /veh IRGQ (11745062_a_at) / RFU FAM174B (11720279_a_at) / Fold change /veh FAM174B (11720279_a_at) / RFU TMPRSS4 (11748680_a_at) / Fold change /veh TMPRSS4 (11748680_a_at) / RFU FAM212B (11763350_a_at) / Fold change /veh FAM212B (11763350_a_at) / RFU PLEKHG5 (11743358_a_at) / Fold change /veh PLEKHG5 (11743358_a_at) / RFU ZSCAN30 (11745921_a_at) / Fold change /veh ZSCAN30 (11745921_a_at) / RFU CMKLR1 (11741424_a_at) / Fold change /veh CMKLR1 (11741424_a_at) / RFU LOC101060620 /// MAPK8IP1 (11723275_at) / Fold change /veh LOC101060620 /// MAPK8IP1 (11723275_at) / RFU SPTSSB (11747773_x_at) / Fold change /veh SPTSSB (11747773_x_at) / RFU PRSS12 (11739890_at) / Fold change /veh PRSS12 (11739890_at) / RFU BIN1 (11741810_x_at) / Fold change /veh BIN1 (11741810_x_at) / RFU WNT11 (11732464_a_at) / Fold change /veh WNT11 (11732464_a_at) / RFU C10orf10 (11716521_a_at) / Fold change /veh C10orf10 (11716521_a_at) / RFU C5orf56 (11738089_at) / Fold change /veh C5orf56 (11738089_at) / RFU CYB561 (11721691_x_at) / Fold change /veh CYB561 (11721691_x_at) / RFU ANKRD19P (11752326_a_at) / Fold change /veh ANKRD19P (11752326_a_at) / RFU OR2T12 /// OR2T33 /// OR2T8 (11738714_s_at) / Fold change /veh OR2T12 /// OR2T33 /// OR2T8 (11738714_s_at) / RFU VCAN (11748164_a_at) / Fold change /veh VCAN (11748164_a_at) / RFU JSRP1 (11732532_at) / Fold change /veh JSRP1 (11732532_at) / RFU KRTAP10-11 (11738290_x_at) / Fold change /veh KRTAP10-11 (11738290_x_at) / RFU MYO3A (11730013_a_at) / Fold change /veh MYO3A (11730013_a_at) / RFU EBF3 (11725865_a_at) / Fold change /veh EBF3 (11725865_a_at) / RFU CAMK2N1 (11719241_x_at) / Fold change /veh CAMK2N1 (11719241_x_at) / RFU C5orf56 (11738088_a_at) / Fold change /veh C5orf56 (11738088_a_at) / RFU OLFML3 (11715873_a_at) / Fold change /veh OLFML3 (11715873_a_at) / RFU LOC100653217 /// NTM (11731650_a_at) / Fold change /veh LOC100653217 /// NTM (11731650_a_at) / RFU MAPK11 (11762145_a_at) / Fold change /veh MAPK11 (11762145_a_at) / RFU FIZ1 (11724087_x_at) / Fold change /veh FIZ1 (11724087_x_at) / RFU OASL (11726364_x_at) / Fold change /veh OASL (11726364_x_at) / RFU SOX15 (11748057_x_at) / Fold change /veh SOX15 (11748057_x_at) / RFU CD79A (11719716_a_at) / Fold change /veh CD79A (11719716_a_at) / RFU HIST1H1D (11736915_at) / Fold change /veh HIST1H1D (11736915_at) / RFU CASKIN2 (11723855_a_at) / Fold change /veh CASKIN2 (11723855_a_at) / RFU LOC730098 (11760151_x_at) / Fold change /veh LOC730098 (11760151_x_at) / RFU OR4N2 (11742367_at) / Fold change /veh OR4N2 (11742367_at) / RFU PRRT2 (11749266_a_at) / Fold change /veh PRRT2 (11749266_a_at) / RFU SNX32 (11753110_a_at) / Fold change /veh SNX32 (11753110_a_at) / RFU CDHR5 (11726645_a_at) / Fold change /veh CDHR5 (11726645_a_at) / RFU RCAN1 (11760418_a_at) / Fold change /veh RCAN1 (11760418_a_at) / RFU FAM167A (11723789_a_at) / Fold change /veh FAM167A (11723789_a_at) / RFU FAM26E (11764081_at) / Fold change /veh FAM26E (11764081_at) / RFU ISYNA1 (11749810_s_at) / Fold change /veh ISYNA1 (11749810_s_at) / RFU ACY1 (11761880_at) / Fold change /veh ACY1 (11761880_at) / RFU 11764098_at / Fold change /veh 11764098_at / RFU SAMD14 (11745864_x_at) / Fold change /veh SAMD14 (11745864_x_at) / RFU NPB (11741838_a_at) / Fold change /veh NPB (11741838_a_at) / RFU TMPRSS6 (11731388_a_at) / Fold change /veh TMPRSS6 (11731388_a_at) / RFU KRTAP10-2 (11738614_at) / Fold change /veh KRTAP10-2 (11738614_at) / RFU ARHGAP8 /// PRR5-ARHGAP8 (11727945_x_at) / Fold change /veh ARHGAP8 /// PRR5-ARHGAP8 (11727945_x_at) / RFU KRTAP5-7 /// NADSYN1 (11734609_at) / Fold change /veh KRTAP5-7 /// NADSYN1 (11734609_at) / RFU RASL12 (11751679_a_at) / Fold change /veh RASL12 (11751679_a_at) / RFU CDKN2B (11736163_a_at) / Fold change /veh CDKN2B (11736163_a_at) / RFU PRF1 (11729649_at) / Fold change /veh PRF1 (11729649_at) / RFU, ZNF638 /// ZNF638-IT1 / Fold change vs veh, ZNF638 /// ZNF638-IT1 / RFU, PANK3 / Fold change vs veh, PANK3 / RFU, SH3YL1 / Fold change vs veh, SH3YL1 / RFU, ZEB2 / Fold change vs veh, ZEB2 / RFU, NRIP1 / Fold change vs veh, NRIP1 / RFU, PTTG1IP / Fold change vs veh, PTTG1IP / RFU, CAPN2 / Fold change vs veh, CAPN2 / RFU, MED14 / Fold change vs veh, MED14 / RFU, SNORA58 / Fold change vs veh, SNORA58 / RFU, C1orf63 / Fold change vs veh, C1orf63 / RFU, LRRFIP1 / Fold change vs veh, LRRFIP1 / RFU, NDUFAF7 / Fold change vs veh, NDUFAF7 / RFU, SLC12A2 / Fold change vs veh, SLC12A2 / RFU, IBTK / Fold change vs veh, IBTK / RFU, ESF1 / Fold change vs veh, ESF1 / Fold change vs veh, TMEM50B / RFU, TAOK1 / Fold change vs veh, TAOK1 / RFU, ACBD3 / Fold change vs veh, ACBD3 / RFU, TMA16 / Fold change vs veh, TMA16 / RFU, RWDD3 / Fold change vs veh, RWDD3 / RFU, BCAT1 / Fold change vs veh, BCAT1 / RFU, EDEM3 / Fold change vs veh, EDEM3 / RFU, TMEM33 / Fold change vs veh, TMEM33 / RFU, WDR75 / Fold change vs veh, WDR75 / RFU, AHCTF1 / Fold change vs veh, AHCTF1 / RFU, TFRC / Fold change vs veh, TFRC / RFU, ZDHHC17 / Fold change vs veh, ZDHHC17 / RFU, NOM1 / Fold change vs veh, NOM1 / RFU, ARL8B / Fold change vs veh, ARL8B / RFU, ZBTB11 / Fold change vs veh, ZBTB11 / RFU, TAMM41 / Fold change vs veh, TAMM41 / RFU, KIAA1704 /// LOC100996395 / Fold change vs veh, KIAA1704 /// LOC100996395 / RFU, ING1 / Fold change vs veh, ING1 / RFU, TRMT61B / Fold change vs veh, TRMT61B / RFU, FUBP3 / Fold change vs veh, FUBP3 / RFU, TP53 / Fold change vs veh, TP53 / RFU, TNKS2 / Fold change vs veh, TNKS2 / RFU, ZFP14 / Fold change vs veh, ZFP14 / RFU, ACTR2 / Fold change vs veh, ACTR2 / RFU, PPP3R1 / Fold change vs veh, PPP3R1 / RFU, PIK3R1 / Fold change vs veh, PIK3R1 / RFU, HNRNPA1 / Fold change vs veh, HNRNPA1 / RFU, RNF170 / Fold change vs veh, RNF170 / RFU, ZNF28 / Fold change vs veh, ZNF28 / RFU, RNGTT / Fold change vs veh, RNGTT / RFU, OGT / Fold change vs veh, OGT / RFU, BRD1 / Fold change vs veh, BRD1 / RFU, MARS / Fold change vs veh, MARS / RFU, ZNF655 / Fold change vs veh, ZNF655 / RFU, FAHD1 / Fold change vs veh, FAHD1 / RFU, BDP1 / Fold change vs veh, BDP1 / RFU, LRRCC1 / Fold change vs veh, LRRCC1 / RFU, ARID1A / Fold change vs veh, ARID1A / RFU, ZNF146 / Fold change vs veh, ZNF146 / RFU, ZNF330 / Fold change vs veh, ZNF330 / RFU, GPN3 / Fold change vs veh, GPN3 / RFU, C9orf123 / Fold change vs veh, C9orf123 / RFU, N4BP2L2 / Fold change vs veh, N4BP2L2 / RFU, ARFIP1 / Fold change vs veh, ARFIP1 / RFU, FAM179B / Fold change vs veh, FAM179B / RFU, BCL10 / Fold change vs veh, BCL10 / RFU, UHRF1BP1L / Fold change vs veh, UHRF1BP1L / RFU, BET1 / Fold change vs veh, BET1 / RFU, CNOT2 / Fold change vs veh, CNOT2 / RFU, ZNF268 / Fold change vs veh, ZNF268 / Fold change vs veh, ZNF507 / RFU, DGCR2 / Fold change vs veh, DGCR2 / RFU, WDSUB1 / Fold change vs veh, WDSUB1 / Fold change vs veh, HSP90B1 /// MIR3652 / RFU, ADSS / Fold change vs veh, ADSS / RFU, GK / Fold change vs veh, GK / RFU, ZNF148 / Fold change vs veh, ZNF148 / RFU, TAF9 / Fold change vs veh, TAF9 / RFU, SLC1A5 / Fold change vs veh, SLC1A5 / RFU, SLMO2 / Fold change vs veh, SLMO2 / RFU, ABCC4 / Fold change vs veh, ABCC4 / RFU, LOC101060439 /// RAP1B / Fold change vs veh, LOC101060439 /// RAP1B / RFU, RFX7 / Fold change vs veh, RFX7 / RFU, GTPBP10 / Fold change vs veh, GTPBP10 / RFU, CNEP1R1 / Fold change vs veh, CNEP1R1 / RFU, BIVM-ERCC5 /// ERCC5 / Fold change vs veh, BIVM-ERCC5 /// ERCC5 / RFU, ILF3 / Fold change vs veh, ILF3 / RFU 11762660_at / Fold change /veh 11762660_at / RFU VCAN (11757783_s_at) / Fold change /veh VCAN (11757783_s_at) / RFU DDX43 (11728927_at) / Fold change /veh DDX43 (11728927_at) / RFU KRT8 (11758188_x_at) / Fold change /veh KRT8 (11758188_x_at) / RFU NKD1 (11759106_at) / Fold change /veh NKD1 (11759106_at) / RFU SRD5A1 (11742802_a_at) / Fold change /veh SRD5A1 (11742802_a_at) / RFU TPSAB1 /// TPSB2 (11721975_s_at) / Fold change /veh TPSAB1 /// TPSB2 (11721975_s_at) / RFU GSTM3 (11746129_a_at) / Fold change /veh GSTM3 (11746129_a_at) / RFU IL23R (11737362_x_at) / Fold change /veh IL23R (11737362_x_at) / RFU TMEM51 (11727254_a_at) / Fold change /veh TMEM51 (11727254_a_at) / RFU PIWIL2 (11732686_x_at) / Fold change /veh PIWIL2 (11732686_x_at) / RFU ORM1 (11744905_x_at) / Fold change /veh ORM1 (11744905_x_at) / RFU CCDC152 (11743942_at) / Fold change /veh CCDC152 (11743942_at) / RFU ECM1 (11717891_a_at) / Fold change /veh ECM1 (11717891_a_at) / RFU IL23R (11748794_a_at) / Fold change /veh IL23R (11748794_a_at) / RFU TNFAIP8L3 (11732012_x_at) / Fold change /veh TNFAIP8L3 (11732012_x_at) / RFU MBOAT4 (11741988_at) / Fold change /veh MBOAT4 (11741988_at) / RFU 11764193_at / Fold change /veh 11764193_at / RFU TMEM53 (11763286_at) / Fold change /veh TMEM53 (11763286_at) / RFU MAGEB2 (11727129_at) / Fold change /veh MAGEB2 (11727129_at) / RFU TMEM200A (11744735_a_at) / Fold change /veh TMEM200A (11744735_a_at) / RFU CCDC152 (11751479_a_at) / Fold change /veh CCDC152 (11751479_a_at) / RFU FAM211A (11726209_a_at) / Fold change /veh FAM211A (11726209_a_at) / RFU RGS16 (11746705_a_at) / Fold change /veh RGS16 (11746705_a_at) / RFU VCAN (11755009_s_at) / Fold change /veh VCAN (11755009_s_at) / RFU RHOB (11743442_s_at) / Fold change /veh RHOB (11743442_s_at) / RFU RGS16 (11720943_a_at) / Fold change /veh RGS16 (11720943_a_at) / RFU RGS16 (11720944_at) / Fold change /veh RGS16 (11720944_at) / RFU, VPS4B / Fold change vs veh, VPS4B / RFU, CREB1 / Fold change vs veh, CREB1 / RFU, DNAJC13 / Fold change vs veh, DNAJC13 / RFU, GNAQ / Fold change vs veh, GNAQ / RFU, CDK5R1 / Fold change vs veh, CDK5R1 / RFU, ZRANB3 / Fold change vs veh, ZRANB3 / RFU, CUL4A / Fold change vs veh, CUL4A / RFU, CCNY / Fold change vs veh, CCNY / RFU, UFL1 / Fold change vs veh, UFL1 / RFU, COG3 / Fold change vs veh, COG3 / RFU, DIAPH2 / Fold change vs veh, DIAPH2 / RFU, SKA2 / Fold change vs veh, SKA2 / RFU, AFF3 / Fold change vs veh, AFF3 / RFU, LMF1 / Fold change vs veh, LMF1 / RFU, IPO11 / Fold change vs veh, IPO11 / RFU, DFFB / Fold change vs veh, DFFB / RFU, FOXP1 / Fold change vs veh, FOXP1 / RFU, CARD8 / Fold change vs veh, CARD8 / RFU, STRN3 / Fold change vs veh, STRN3 / RFU, ADK / Fold change vs veh, ADK / RFU, RASSF2 / Fold change vs veh, RASSF2 / RFU, WIPF1 / Fold change vs veh, WIPF1 / RFU, LARP1B / Fold change vs veh, LARP1B / RFU, RASA1 / Fold change vs veh, RASA1 / RFU, RB1 / Fold change vs veh, RB1 / RFU, PPFIA1 / Fold change vs veh, PPFIA1 / RFU, MAT2A / Fold change vs veh, MAT2A / RFU, CCT5 / Fold change vs veh, CCT5 / RFU, WDR92 / Fold change vs veh, WDR92 / RFU, CUX1 / Fold change vs veh, CUX1 / RFU, TTC7A / Fold change vs veh, TTC7A / RFU, TMEM135 / Fold change vs veh, TMEM135 / RFU, DEPTOR / Fold change vs veh, DEPTOR / RFU, CPM / Fold change vs veh, CPM / RFU, DNAJB6 / Fold change vs veh, DNAJB6 / RFU, CACNA2D3 / Fold change vs veh, CACNA2D3 / RFU, DTX4 / Fold change vs veh, DTX4 / RFU, TFCP2 / Fold change vs veh, TFCP2 / RFU, GMCL1 /// GMCL1P1 / Fold change vs veh, GMCL1 /// GMCL1P1 / RFU, AEBP2 / Fold change vs veh, AEBP2 / RFU, SNHG1 /// SNORD22 /// SNORD25 /// SNORD26 /// SNORD27 /// SNORD28 /// SNORD29 /// SNORD31 / Fold change vs veh, SNHG1 /// SNORD22 /// SNORD25 /// SNORD26 /// SNORD27 /// SNORD28 /// SNORD29 /// SNORD31 / Fold change (Aza/veh), C12orf56 (ProbeSet 11735607_a_at) / Fold change (ACY-1035/veh), C12orf56 (ProbeSet 11735607_a_at) / Fold change (Aza/veh), FGFR1OP (ProbeSet 11751329_s_at) / Fold change (ACY-1035/veh), FGFR1OP (ProbeSet 11751329_s_at) / Fold change (Aza/veh), VPS36 (ProbeSet 11739960_a_at) / Fold change (ACY-1035/veh), VPS36 (ProbeSet 11739960_a_at) / RFU SYPL1 (11715823_x_at) / Fold change /veh SYPL1 (11715823_x_at) / RFU IGFBP7 (11715501_s_at) / Fold change /veh IGFBP7 (11715501_s_at) / RFU REEP3 (11722064_at) / Fold change /veh REEP3 (11722064_at) / RFU IGLL1 (11728026_x_at) / Fold change /veh IGLL1 (11728026_x_at): dose or concentration left out as unconfirmed
Conditions: MV-4-11 cells, 48 hours

Compound: Nc1ncn([C@@H]2O[C@H](CO)[C@@H](O)[C@H]2O)c(=O)n1 [azacitidine]
- RFU JSRP1 (11732532_at): 47.93 RFU
